Laboratory results taken from patent publication US10654818B2, “Furane derivatives as inhibitors of ATAD2” (BAYER PHARMA AKTIENGESELLSCHAFT, priority 2015, dated 2020).

Assays:
[1] = tested on: MCF7 breast cancer cells; assay: Cell proliferation assay (alamarBlue), MCF7; format: cell-based; details: Homo sapiens, 72 h incubation, GI50 = half-maximal growth inhibition
Experimental: (§1) The effect of ATAD2 inhibitory compounds on cancer cell proliferation might be measured as below. For example; MCF7 breast cancer cells might be seeded into 96-well microtiter plates at 2000 cells/well in 90 μl cell culture media (RPMI 1640, 10% FCS, 2 mM L-Glutamine, 10 μg/ml human Insulin, […]) and incubated for 24 h at 37° C. and 5% CO2. Note, the culturing conditions might vary from cell line to cell line depending on their standard culturing conditions. Compounds might be then delivered to the microtiter assay plates and, following a 72 h long incubation period at 37° C. and 5% CO2, the viability of the cells might be measured with addition of alamarBlue® (Invitrogen) to the medium in Victor X3 Multilabel Plate Reader (Perkin Elmer).
(§2) GI50 means half-maximal growth inhibition.

[2] = target: T1, recombinant, N-terminally GST-tagged ATAD2 bromodomain amino acids 981-1108 (Homo sapiens, UniProt Q6PL18); assay: TR-FRET assay: disruption of the interaction between ATAD2 and acetylated Histone H4 (Ac-H4) peptide; format: binding; details: inhibition of ATAD2/Ac-H4 complex formation; 10 nM ATAD2, 50 nM Ac-H4 peptide
T1 construct: ATAD2 bromodomain amino acids 981-1108; made in house; host or cells: E. coli
T1 sequence (Q6PL18 981-1108): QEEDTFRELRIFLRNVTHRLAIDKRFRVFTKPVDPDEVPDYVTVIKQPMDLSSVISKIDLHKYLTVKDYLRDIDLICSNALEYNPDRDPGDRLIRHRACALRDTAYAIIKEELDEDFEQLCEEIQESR
Method in brief: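 Read-out is the 665/622 nm TR-FRET ratio after 337 nm excitation, normalized to DMSO and no-protein controls, with IC50 fitted by 4-parameter logistic. Compounds (11 concentrations, 0.1 nM-20 μM) pre-equilibrated 10 min with 10 nM ATAD2, then 1 h at 22 °C with 50 nM Ac-H4 peptide.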

[3] = tested on: NCl-H526 lung cancer; assay: Cell proliferation assay (alamarBlue), NCl-H526; format: cell-based; details: GI50 = half-maximal growth inhibition
Experimental: as §1, §2

Row | Compound | GI50 [1] | IC50 [2] | GI50 [3]
1 | Cc1ccc([C@@H](C)NCc2ccc(-c3ccc(Cl)c(C(=O)N[C@@H](CN[C@H]4CC[C@@H](N)CC4)Cc4ccc(C#N)cc4)c3)o2)cc1 (single isomer, unassigned) [Example 71] | 3180 nM | 107 nM | 1250 nM
2 | Cc1ccc([C@@H](C)NCc2ccc(-c3ccc(Cl)c(C(=O)N[C@@H](CO)Cc4ccc(C#N)cc4)c3)o2)cc1 [Example 4, 2-chloro-N-[(2R)-1-(4-cyanophenyl)-3-hydroxypropan-2-yl]-5-[5-({[(1R)-1-(4-methylphenyl)ethyl]amino}methyl)-2-furyl]benzamide] | 11500 nM | 393 nM | 15400 nM
3 | Cc1ccc([C@@H](C)NCc2ccc(-c3ccc(Cl)c(C(=O)N[C@@H](CCNCC4CCN(C)CC4)Cc4ccc(C#N)cc4)c3)o2)cc1 [Example 33, 2-chloro-N-[(2R)-1-(4-cyanophenyl)-4-{[(1-methylpiperidin-4-yl)methyl]amino}butan-2-yl]-5-[5-({[(1R)-1-(4-methylphenyl)ethyl]amino}methyl)-2-furyl]benzamide] | 1420 nM | 184 nM | 1250 nM
4 | Cc1ccc([C@@H](C)NCc2ccc(-c3ccc(Cl)c(C(=O)N[C@@H](CCN4CC5(CN(C)C5)C4)Cc4ccc(C#N)cc4)c3)o2)cc1 [Example 36, 2-chloro-N-[(2R)-1-(4-cyanophenyl)-4-(6-methyl-2,6-diazaspiro[3.3]hept-2-yl)butan-2-yl]-5-[5-({[(1R)-1-(4-methylphenyl)ethyl]amino}methyl)-2-furyl]benzamide] | 1280 nM | 186 nM | 1290 nM
5 | Cc1ccc([C@@H](C)NCc2ccc(-c3ccc(Cl)c(C(=O)N[C@@H](C)Cc4ccc(C#N)cc4)c3)o2)cc1 [Example 42, 2-chloro-N-[(2S)-1-(4-cyanophenyl)propan-2-yl]-5-[5-({[(1R)-1-(4-methylphenyl)ethyl]amino}methyl)-2-furyl]benzamide] | 11900 nM | 1100 nM | > 30000 nM
6 | Cc1ccc([C@@H](C)NCc2ccc(-c3ccc(Cl)c(C(=O)N[C@@H](CN)Cc4ccc(C#N)cc4)c3)o2)cc1 [Example 53, N-[(2R)-1-amino-3-(4-cyanophenyl)propan-2-yl]-2-chloro-5-[5-({[(1R)-1-(4-methylphenyl)ethyl]amino}methyl)-2-furyl]benzamide] | 2510 nM | 273 nM | 3600 nM
7 | Cc1ccc([C@@H](C)NCc2ccc(-c3ccc(Cl)c(C(=O)N[C@@H](CNC[C@@H]4[C@H]5CNC[C@@H]45)Cc4ccc(C#N)cc4)c3)o2)cc1 [Example 66, N-[(2R)-1-{[(1R,5S,6r)-3-azabicyclo[3.1.0]hex-6-ylmethyl]amino}-3-(4-cyanophenyl)propan-2-yl]-2-chloro-5-[5-({[(1R)-1-(4-methylphenyl)ethyl]amino}methyl)-2-furyl]benzamide] | 3760 nM | 245 nM | 5100 nM
8 | CC(C)(NCc1ccc(-c2ccc(Cl)c(C(=O)N[C@@H](CN)Cc3ccc(C#N)cc3)c2)o1)c1ccc(C(F)(F)F)cc1 [Example 74, N-[(2R)-1-amino-3-(4-cyanophenyl)propan-2-yl]-2-chloro-5-{5-[({2-[4-(trifluoro-methyl)phenyl]propan-2-yl}amino)methyl]-2-furyl}benzamide] |  | 671 nM | 
9 | C[C@@H](NCc1ccc(-c2ccc(Cl)c(C(=O)N[C@@H](CN)Cc3ccc(C#N)cc3)c2)o1)c1ccc(C(F)(F)F)cc1 [Example 75, N-[(2R)-1-amino-3-(4-cyanophenyl)propan-2-yl]-2-chloro-5-{5-[({(1R)-1-1-[4-(trifluoromethyl)phenyl]ethyl}amino)methyl]-2-furyl}benzamide] |  | 567 nM | 
10 | Cc1ccc([C@@H](C)NCc2ccc(-c3cc(F)c(Cl)c(C(=O)N[C@@H](CO)Cc4ccc(C#N)cc4)c3)o2)cc1 [Example 77, 2-chloro-N-[(2R)-1-(4-cyanophenyl)-3-hydroxypropan-2-yl]-3-fluoro-5-[5-({[(1R)-1-(4-methylphenyl)ethyl]amino}methyl)-2-furyl]benzamide] |  | 598 nM | 
11 | Cc1ccc([C@@H](C)NCc2ccc(-c3cc(C(=O)N[C@@H](CO)Cc4ccc(C#N)cc4)c(Cl)cc3Cl)o2)cc1 [Example 78, 2,4-dichloro-N-[(2R)-1-(4-cyanophenyl)-3-hydroxypropan-2-yl]-5-[5-({[(1R)-1-(4-methylphenyl)ethyl]amino}methyl)-2-furyl]benzamide] |  | 1230 nM | 
12 | Cc1ccc([C@@H](C)NCc2ccc(-c3cc(C(=O)N[C@@H](CO)Cc4ccc(C#N)cc4)ccc3C#N)o2)cc1 [Example 79, 4-cyano-N-[(2R)-1-(4-cyanophenyl)-3-hydroxypropan-2-yl]-3-[5-({[(1R)-1-(4-methylphenyl)ethyl]amino}methyl)-2-furyl]benzamide] |  | 1400 nM | 
13 | COc1cc(C)c(C(=O)N[C@@H](CO)Cc2ccc(C#N)cc2)cc1-c1ccc(CN[C@H](C)c2ccc(C)cc2)o1 [Example 80, N-[(2R)-1-(4-cyanophenyl)-3-hydroxypropan-2-yl]-4-methoxy-2-methyl-5-[5-({[(1R)-1-(4-methylphenyl)ethyl]amino}methyl)-2-furyl]benzamide] |  | 407 nM | 
14 | COc1cc(Cl)c(C(=O)N[C@@H](CO)Cc2ccc(C#N)c(C)c2)cc1-c1ccc(CN[C@H](C)c2ccc(C)cc2)o1 [Example 82] |  | 350 nM | 
15 | COc1cc(Cl)c(C(=O)N[C@@H](CN)Cc2ccc(C#N)cc2)cc1-c1ccc(CN[C@H](C)c2ccc(C)cc2)o1 [Example 83, N-[(2R)-1-amino-3-(4-cyanophenyl)propan-2-yl]-2-chloro-4-methoxy-5-[5-({[(1R)-1-(4-methylphenyl)ethyl]amino}methyl)-2-furyl]benzamide] |  | 233 nM | 
16 | COc1cc(Cl)c(C(=O)N[C@@H](CN)Cc2ccc(C#N)c(C)c2)cc1-c1ccc(CN[C@H](C)c2ccc(C)cc2)o1 [Example 84, N-[(2R)-1-amino-3-(4-cyano-3-methylphenyl)propan-2-yl]-2-chloro-4-methoxy-5-[5-({[(1R)-1-(4-methylphenyl)ethyl]amino}methyl)-2-furyl]benzamide] |  | 270 nM | 
17 | COc1cc(Cl)c(C(=O)N[C@H](Cc2ccc(C#N)cc2)C(=O)N[C@H]2CC[C@H](N)CC2)cc1-c1ccc(CN[C@H](C)c2ccc(C)cc2)o1 [Example 85, N-(trans-4-aminocyclohexyl)-Nα-{2-chloro-4-methoxy-5-[5-({[(1R)-1-(4-methylphenyl)ethyl]amino}methyl)-2-furyl]benzoyl}-4-cyano-D-phenylalaninamide] |  | 415 nM | 
18 | COc1cc(Cl)c(C(=O)N[C@@H](CN[C@H]2CC[C@@H](N)CC2)Cc2ccc(C#N)cc2)cc1-c1ccc(CN[C@H](C)c2ccc(C)cc2)o1 [Example 87, N-[(2R)-1-[(4-aminocyclohexyl)amino]-3-(4-cyanophenyl)propan-2-yl]-2-chloro-4-methoxy-5-[5-({[(1R)-1-(4-methylphenyl)ethyl]amino}methyl)-2-furyl]benzamide] |  | 216 nM | 
19 | COc1cc(Cl)c(C(=O)N[C@@H](CN[C@H]2CC[C@@H](N)CC2)Cc2ccc(C#N)c(C)c2)cc1-c1ccc(CN[C@H](C)c2ccc(C)cc2)o1 [Example 88, N-[(2R)-1-[(4-aminocyclohexyl)amino]-3-(4-cyano-3-methylphenyl)propan-2-yl]-2-chloro-4-methoxy-5-[5-({[(1R)-1-(4-methylphenyl)ethyl]amino}methyl)-2-furyl]-benzamide] |  | 128 nM | 
20 | CNC(=O)C[C@@H](Cc1ccc(C#N)cc1)NC(=O)c1cc(-c2ccc(CN[C@H](C)c3ccc(Cl)cc3)o2)ccc1Cl [Example 89, 2-chloro-5-[5-({[(1R)-1-(4-chlorophenyl)ethyl]amino}methyl)-2-furyl]-N-[(2R)-1-(4-cyanophenyl)-4-(methylamino)-4-oxobutan-2-yl]benzamide] |  | 2060 nM | 
21 | CNC(=O)C[C@@H](Cc1ccc(C#N)cc1)NC(=O)c1ccc(C#N)c(-c2ccc(CN[C@H](C)c3ccc(C)cc3)o2)c1 [Example 91] |  | 13400 nM | 
22 | CNC(=O)C[C@@H](Cc1ccccc1)NC(=O)c1cc(-c2ccc(CN[C@H](C)c3ccc(C)cc3)o2)ccc1Cl [Example 92] |  | 8370 nM | 
23 | CNC(=O)C[C@@H](Cc1ccc(C#N)cc1)NC(=O)c1cc(-c2ccc(CNC(C)(C)c3ccccc3)o2)ccc1Cl [Example 93] |  | 7690 nM | 
24 | CNC(=O)C[C@@H](Cc1ccc(C#N)cc1)NC(=O)c1cc(-c2ccc(CNC(C)(C)c3ccc(C)cc3)o2)ccc1Cl [Example 94] |  | 2980 nM | 
25 | CC(C)(NCc1ccc(-c2ccc(Cl)c(C(=O)NC(Cc3ccc(C#N)cc3)C(N)=O)c2)o1)c1ccc(Cl)cc1 (stereo not shown) [Example 95] |  | 2820 nM | 
26 | Cc1ccc([C@@H](C)NCc2ccc(-c3ccc(Cl)c(C(=O)N[C@@H](CO)Cc4ccccc4)c3)o2)cc1 [Example 96] |  | 2650 nM | 
